For data set [1], the system named is CYP2B6 mRNA. Nature of the data set: CYP2B6 mRNA expression in HepG2 cells (RT-PCR, agarose gel). The data set is classed as cell-based, human. The note with it: HepG2, 10 μM, positive control, p < 0.001 vs cell control.
Data set [2] has as its target T1, CYP2B6 (Homo sapiens, UniProt P20813).
T1 sequence (P20813 1-491): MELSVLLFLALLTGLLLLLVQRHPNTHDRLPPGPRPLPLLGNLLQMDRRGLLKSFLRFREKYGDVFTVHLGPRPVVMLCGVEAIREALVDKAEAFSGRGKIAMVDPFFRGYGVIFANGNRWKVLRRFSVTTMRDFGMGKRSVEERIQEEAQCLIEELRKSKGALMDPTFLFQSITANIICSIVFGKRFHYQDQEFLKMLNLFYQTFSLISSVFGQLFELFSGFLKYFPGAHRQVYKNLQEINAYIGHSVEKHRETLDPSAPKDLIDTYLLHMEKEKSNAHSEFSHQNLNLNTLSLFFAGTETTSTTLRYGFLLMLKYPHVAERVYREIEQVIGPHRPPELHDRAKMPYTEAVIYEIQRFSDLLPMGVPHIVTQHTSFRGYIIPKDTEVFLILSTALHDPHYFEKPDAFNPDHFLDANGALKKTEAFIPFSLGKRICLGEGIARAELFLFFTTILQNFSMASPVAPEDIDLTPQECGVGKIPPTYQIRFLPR
Put plainly: Michaelis-Menten kinetics of efavirenz metabolism in HLM.

Data set [3] relates to CYP1A2. Details: method as in Pan et al., 2014. The note with it: ref Pan et al., 2014; cited from earlier work.
The test system of data set [4] is HIV-1 Reverse Transcriptase (RT)-associated RNase H. Details: method as in Sonar et al., 2017. Conditions: in vitro, ref Sonar et al., 2017, cited from earlier work.
The subject of data set [5] is β-esterases. Put plainly: Michaelis-Menten kinetics of rifampicin metabolism in HLM. It counts as in vitro ADME, human. Conditions: pooled HLM.
The subject of data set [6] is CYP3A enzymes. Details: method as in Quintieri et al., 2008. The note with it: ref Quintieri et al., 2008; cited from earlier work.
The target in data set [7] is T2, rifampicin metabolism (β-esterases) (Homo sapiens, UniProt P22760).
T2 sequence (P22760 1-399): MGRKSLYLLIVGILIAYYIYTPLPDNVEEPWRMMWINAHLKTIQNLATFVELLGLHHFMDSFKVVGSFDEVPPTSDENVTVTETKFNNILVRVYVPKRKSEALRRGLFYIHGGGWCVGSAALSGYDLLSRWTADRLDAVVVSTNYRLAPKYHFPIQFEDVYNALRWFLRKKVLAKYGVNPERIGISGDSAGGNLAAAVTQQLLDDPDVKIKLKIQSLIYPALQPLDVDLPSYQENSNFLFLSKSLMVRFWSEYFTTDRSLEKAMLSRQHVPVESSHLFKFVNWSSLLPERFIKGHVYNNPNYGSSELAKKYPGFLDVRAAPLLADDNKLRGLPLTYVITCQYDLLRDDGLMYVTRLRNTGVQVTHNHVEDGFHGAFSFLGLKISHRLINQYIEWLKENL
Put plainly: HLM inhibition assay, rifampicin metabolism to 25-O-desacetyl rifampicin, two-point screening and IC50. It counts as in vitro ADME. Conditions: liver microsomes, pH 7.4, two-point screening, 49.79 μg/ml, read-out: rifampicin metabolism activity reduced by. Here is the method:
The inhibitory potential of each extract was assessed using two-point screening (20 and 200 μg/ml) and the activity potential was compared with the control incubates (without inhibitor). Neostigmine was used as the internal standard.
Briefly, a standard 200 μl incubation mixture containing the liver microsomes (0.5 mg/ml protein concentration for efavirenz, 0.25 mg/ml protein concentration rifampicin), efavirenz (15 μM)/rifampicin (48 μM) in 0.2M phosphate buffer (pH 7.4) and the basil herb extract (final concentration […] or 200 μg/ml, dissolved in <1% solvent) was incubated at 37°C for 30 min, in triplicates, with master reaction mix comprising of NADPH (final concentration 1.3 mM) and other reaction co-factors such as glucose-6-phosphate (final concentration 1.3 mM), glucose-6-phosphate dehydrogenase (1 U/ml) and magnesium chloride (final concentration 3.3 mM). About 200 μl of chilled ice-cold acetonitrile spiked with neostigmine (20 μM) was used to terminate each reaction. These samples were then centrifuged at 13,000 rpm for 10 min and the supernatants were subjected to HPLC analysis. The mobile phase comprised of water (A): acetonitrile (B) at a flow rate of 0.7 ml min^-1 for efavirenz samples and water (A): methanol (B) at a flow rate of 0.8 ml min^-1 for rifampicin samples. […] The percentage of remaining activity was expressed as in the equation below (equation 2.8.3.1): […]

Data set [8] relates to UDP glucuronosyltransferases. Details: method as in Zhang et al., 2005. The note with it: different assay conditions, bilirubin as the substrate; ref Zhang et al., 2005; read-out: IC50 reported in a previous HLM study; cited from earlier work.
In data set [9] the target is T2, rifampicin metabolism (β-esterases). Put plainly: Time-dependent inhibition (TDI) IC50 shift assay in HLM, rifampicin metabolism. The data set is classed as in vitro ADME. Conditions: human liver microsomes, probe rifampicin. As to the method: The TDI fold-shift was calculated using the ratio of the IC50s of the normal assay IC50(-) to that of the pre-incubation assay IC50(+), with NADPH (equation 2.8.3.2).
Eq. (2.8.3.2) TDIfold-shift=normal assayIC50(−)/pre-incubation assayIC50(+)
Extracts with fold shifts ≥1.5 were classified positive for TDI ([Nomeir et al., 2004]).

Each structure is given as a SMILES string. Where “and” joins values, the source holds several entries; their conditions need not be identical. Identical values can stand only once. Counter-ions that a name gives are not always drawn. A value given as a limit tells only on which side of the number the result lay.

In the case of `C[C@@H]1C[C@H]2[C@@H]3CCC4=CC(=O)C=C[C@]4(C)[C@@]3(F)[C@@H](O)C[C@]2(C)[C@@]1(O)C(=O)CO` [Dexamethasone, dexamethasone], in data set [1], the “fold induction of CYP2B6 mRNA expression” value is recorded as “significant fold induction”.

`O=C1Nc2ccc(Cl)cc2[C@@](C#CC2CC2)(C(F)(F)F)O1` [EFV, efavirenz]: the Km in [2] (human, pooled human liver microsomes) was determined as 15.1 µM. Besides, the “CLint (Vmax/Km)” value in data set [2] (pooled HLM) stood at 0.0240 μl/min/mg protein. In [2] (pooled HLM, formation of 8-hydroxy efavirenz), the Vmax amounted to 0.3576 pmol/min/mg protein.

For `COc1ccc(-c2cc(=O)c3c(O)c(OC)c(OC)cc3o2)cc1O` [Eupatorin, Eupatorin (3′,5-Dihydroxy-4′,6,7-trimethoxyflavone)], the “inhibition of CYP1A2” value in data set [3] is listed as “inhibits”.

On to `CCCCCCCC/C=C\CCCCCCCCNC(=O)/C=C/c1ccc(O)c(O)c1` [N-oleylcaffeamide], for which the “inhibition of RT-associated activity of ribonuclease H and DNA polymerase” value in data set [4] is recorded as “strongly inhibited”.

`CO[C@H]1/C=C/O[C@@]2(C)Oc3c(C)c(O)c4c(O)c(c(/C=N/N5CCN(C)CC5)c(O)c4c3C2=O)NC(=O)/C(C)=C\C=C\[C@H](C)[C@H](O)[C@@H](C)[C@@H](O)[C@@H](C)[C@H](OC(C)=O)[C@@H]1C` [RIF, rifampicin]: the “CLint (Vmax/Km)” value in [5] is on record as 0.0260 μl/min/mg protein. In addition, the Vmax is given as 1.2330 pmol/min/mg protein in [5] (formation of 25-O-desacetyl rifampicin) and 1.233 pmol/min/mg protein in data set [5] (formation of 25-O-desacetyl rifampicin, listed as RIFAMPICIN). Besides, the Km in [5] (formation of 25-O-desacetyl rifampicin, 0–150 μM) stood at 48.2 µM.

`COc1ccc(-c2cc(=O)c3c(O)c(OC)c(OC)cc3o2)cc1` [Salvigenin, Salvigenin (5-Hydroxy-6,7,4′-trimethoxyflavone)]: the “inhibition of CYP3A enzymes” value in [6] was “moderate inhibitor”.

Regarding `Cc1c(O)cccc1C(=O)N[C@@H](CSc1ccccc1)[C@H](O)CN1C[C@H]2CCCC[C@H]2C[C@H]1C(=O)NC(C)(C)C` [nelfinavir, nelfinavir mesylate hydrate], in [7], the inhibition at 0.5 h was determined as 30%. The IC50 was 2.7 µM in [8]; 6.39 µM and 3.63 µg/mL in [9] (HLM, 30 min pre-incubation with NADPH, rifampicin as substrate, read-out: TDI IC50 against rifampicin metabolism). In addition, in [9] (rifampicin pathway, fold shift ≥1.5 classified positive for TDI, read-out: IC50 shift-fold, co-incubation IC50(-) / pre-incubation IC50(+)), the IC50 shift is more than 1.5.

Turning to `CCCCCCCCCCCCCCOC(=O)/C=C/c1ccc(O)c(OC)c1` [tetradecyl ferulate], in data set [4] (read-out: IC50, RNase H inhibition), the concentration for half-maximal inhibition (IC50) was 12.4 µM.

The record behind these values is PMC7204527, “In Vitro Assessment of the Interaction Potential of Ocimum basilicum (L.) Extracts on CYP2B6, 3A4, and Rifampicin Metabolism” (Frontiers in Pharmacology, 2020).
